According to patent US20230263822A1, “MODULATION OF FACTOR 11 EXPRESSION” (Ionis Pharmaceuticals, Inc., priority 2008, published 2023):
Strand notation (5' to 3'): a small letter for the sugar, then the base; units joined by * are phosphorothioate-linked, units joined directly phosphodiester-linked; [ ] holds rarer units or linkages, { } end groups; capitals alone tell only the bases. e = 2'-O-(2-methoxyethyl) (MOE); [5mC] = 5-methylcytosine; d = 2'-deoxy (DNA)

The substances below were run on human Factor 11 mRNA (assay: Antisense inhibition of human Factor 11 in HepG2 cells by microwalk gapmers, lipofectin, 75 nM (Example 3)). Conditions: HepG2, lipofectin, ~24 h, gapmers targeted to nucleobases 656 to 704 of SEQ ID NO: 1.
Assay type: cell-based
Experimental: These gapmers were designed by creating gapmers shifted slightly upstream and downstream (i.e. “microwalk”) of the original gapmers from Table 3. Gapmers were also created with various motifs, e.g. 5-10-5 MOE, 3-14-3 MOE, and 2-13-5 MOE. These gapmers were tested in vitro. Cultured HepG2 cells at a density of 10,000 cells per well were transfected using lipofectin reagent with 75 nM antisense oligonucleotide. After a treatment period of approximately 24 hours, RNA was isolated from the cells and Factor 11 mRNA levels were measured by quantitative real-time PCR. Factor 11 mRNA levels were adjusted according to total RNA content, as measured by RIBOGREEN. Results are presented as percent inhibition of Factor 11, relative to untreated control cells.
The chimeric antisense oligonucleotides in Table 4 were designed as 5-10-5 MOE, 3-14-3 MOE, and 2-13-5 MOE gapmers. The first listed gapmers in Table 4 are the original gapmers (see Table 3) from which the remaining gapmers were designed via microwalk and are designated by an asterisk. The 5-10-5 gapmers are 20 nucleotides in length, wherein the central gap segment is comprised of 10 2′-deoxynucleotides and is flanked on both sides (in the 5′ and 3′ directions) by wings comprising 5 nucleotides each. The 3-14-3 gapmers are 20 nucleotides in length, wherein the central gap segment is comprised of 14 2′-deoxynucleotides and is flanked on both sides (in the 5′ and 3′ directions) by wings comprising 3 nucleotides each. The 2-13-5 gapmers are 20 nucleotides in length, wherein the central gap segment is comprised of 13 2′-deoxynucleotides. The central gap is flanked on the 5′ end with a wing comprising 2 nucleotides and on the 3′ end with a wing comprising 5 nucleotides. For each of the motifs (5-10-5, 3-14-3, and 2-13-5), each nucleotide in the 5′ wing segment and each nucleotide in the 3′ wing segment has a 2′-MOE modification. The internucleoside linkages throughout each gapmer are phosphorothioate (P=S) linkages. All cytidine residues throughout each gapmer are 5-methyl cytidines. “Target start site” indicates the 5′-most nucleotide to which the gapmer is targeted. “Target stop site” indicates the 3′-most nucleotide to which the gapmer is targeted. Each gapmer listed in Table 4 is targeted to SEQ ID NO: 1 (GENBANK Accession No. NM_000128.3).

First: 416868 (antisense eA*eA*eT*dG*dT*d[5mC]*dT*dT*dT*dG*dT*dT*dG*d[5mC]*dA*dA*dG*e[5mC]*eG*e[5mC]) [compound 416868]
Second: 416869 (antisense eA*eA*eA*dT*dG*dT*d[5mC]*dT*dT*dT*dG*dT*dT*dG*d[5mC]*dA*dA*eG*e[5mC]*eG) [compound 416869]
The “% inhibition” value of the first is higher: 93% for the first, 81% for the second.

Going from “416870 (antisense eT*eA*eA*dA*dT*dG*dT*d[5mC]*dT*dT*dT*dG*dT*dT*dG*d[5mC]*dA*eA*eG*e[5mC]) [compound 416870]” to “416871 (antisense eA*eT*eA*dA*dA*dT*dG*dT*d[5mC]*dT*dT*dT*dG*dT*dT*dG*d[5mC]*eA*eA*eG) [compound 416871]”, the “% inhibition” value falls from 76% to 28%.

Compared with “416872 (antisense e[5mC]*eA*eT*dA*dA*dA*dT*dG*dT*d[5mC]*dT*dT*dT*dG*dT*dT*dG*e[5mC]*eA*eA) [compound 416872]”, “416873 (antisense eA*e[5mC]*eA*dT*dA*dA*dA*dT*dG*dT*d[5mC]*dT*dT*dT*dG*dT*dT*eG*e[5mC]*eA) [compound 416873]” is higher in “% inhibition” value: 20% for the first, 51% for the second.

Compared with “416874 (antisense e[5mC]*eA*e[5mC]*dA*dT*dA*dA*dA*dT*dG*dT*d[5mC]*dT*dT*dT*dG*dT*eT*eG*e[5mC]) [compound 416874]”, “416875 (antisense e[5mC]*e[5mC]*eA*d[5mC]*dA*dT*dA*dA*dA*dT*dG*dT*d[5mC]*dT*dT*dT*dG*eT*eT*eG) [compound 416875]” is higher in “% inhibition” value: 49% for the first, 75% for the second.

Going from “416876 (antisense eT*e[5mC]*e[5mC]*dA*d[5mC]*dA*dT*dA*dA*dA*dT*dG*dT*d[5mC]*dT*dT*dT*eG*eT*eT) [compound 416876]” to “416877 (antisense eG*eT*e[5mC]*d[5mC]*dA*d[5mC]*dA*dT*dA*dA*dA*dT*dG*dT*d[5mC]*dT*dT*eT*eG*eT) [compound 416877]”, the “% inhibition” value rises from 37% to 51%.

First: 416879 (antisense eA*eG*eG*dT*d[5mC]*d[5mC]*dA*d[5mC]*dA*dT*dA*dA*dA*dT*dG*dT*d[5mC]*eT*eT*eT) [compound 416879]
Second: 416880 (antisense eT*eA*eG*dG*dT*d[5mC]*d[5mC]*dA*d[5mC]*dA*dT*dA*dA*dA*dT*dG*dT*e[5mC]*eT*eT) [compound 416880]
The “% inhibition” value of the first is higher: 92% for the first, 66% for the second.

Going from “416881 (antisense e[5mC]*eT*eA*dG*dG*dT*d[5mC]*d[5mC]*dA*d[5mC]*dA*dT*dA*dA*dA*dT*dG*eT*e[5mC]*eT) [compound 416881]” to “416882 (antisense eT*e[5mC]*eT*dA*dG*dG*dT*d[5mC]*d[5mC]*dA*d[5mC]*dA*dT*dA*dA*dA*dT*eG*eT*e[5mC]) [compound 416882]”, the “% inhibition” value falls from 81% to 60%.

First: 416883 (antisense eG*eT*e[5mC]*dT*dA*dG*dG*dT*d[5mC]*d[5mC]*dA*d[5mC]*dA*dT*dA*dA*dA*eT*eG*eT) [compound 416883]
Second: 416884 (antisense eT*eG*eT*d[5mC]*dT*dA*dG*dG*dT*d[5mC]*d[5mC]*dA*d[5mC]*dA*dT*dA*dA*eA*eT*eG) [compound 416884]
The “% inhibition” value of the first is higher: 82% for the first, 69% for the second.

First: 416885 (antisense eA*eT*eG*dT*d[5mC]*dT*dA*dG*dG*dT*d[5mC]*d[5mC]*dA*d[5mC]*dA*dT*dA*eA*eA*eT) [compound 416885]
Second: 416886 (antisense e[5mC]*eA*eT*dG*dT*d[5mC]*dT*dA*dG*dG*dT*d[5mC]*d[5mC]*dA*d[5mC]*dA*dT*eA*eA*eA) [compound 416886]
The “% inhibition” value of the first is lower: 67% for the first, 74% for the second.

“416888 (antisense eT*eT*e[5mC]*dA*dT*dG*dT*d[5mC]*dT*dA*dG*dG*dT*d[5mC]*d[5mC]*dA*d[5mC]*eA*eT*eA) [compound 416888]” was tested, and the “% inhibition” value was 76%.

Same assay, conditions: HepG2 cells, lipofectin, gapmers targeted to nucleobases 1062 to 1091 of SEQ ID NO: 1

“416847 (antisense eT*eT*eT*e[5mC]*eT*dT*dT*dG*dA*dG*dA*dT*dT*d[5mC]*dT*eT*eT*eG*eG*eG) [compound 416847]” was tested, and the “% inhibition” value was 50%.
